Structures are written as SMILES. Entries after “also recorded” stand apart in the source; their conditions may differ.

Experiment [1] deals with human breast cancer MCF-7 cell line. Description: MTT cytotoxicity assay against MCF-7 breast cancer cells. The format is cell-based. The following applies: for IC50: Homo sapiens, MCF7, MTT assay, MCF-7 cells, average of at least three independent experiments, read-out: Anticancer activity against MCF-7 cells IC50 mean ± SD. An excerpt: MTT assay was used to evaluate the in vitro cytotoxicity of the new compounds against breast cancer cell lines MCF-7[38]. More details are present in the Supplementary file.
S1: In vitro cytotoxicity experiment
MTT assay was used to evaluate the in vitro cytotoxicity of the new compounds against breast cancer cell lines MCF-7 [39]. MTT assay depends on the reduction of the soluble 3-(4,5-methyl-2-thiazolyl)-2,5-diphenyl-2H-tetrazolium bromide (MTT) into a blue purple formazan product, mainly by mitochondrial reductase activity inside the living cells. The cells used in cytotoxicity […]
at 37 °C in a 5% CO 2 incubator. After 12 h, the test sampl e (2 μL) was added to the cells (2 × 10 4) in 96-well plates and cultured at 37 ◦C for 3 days. The cultured cells were mixed with 20 μL of MTT solution and incubated for 4 h at 37 °C. The supernatant was carefully removed from each well and 100 μL of DMSO we re added to each well to dissolve the formazan crystals which were formed by the cellular reduction of MTT. […]

The next experiment has as its target HER-2 (Homo sapiens, UniProt P04626). Kind of experiment: In vitro kinase inhibition assay, HER-2 (ADP-Glo Kinase Assay).
Experiment [2] deals with MCF-7 cells. Kind of experiment: Annexin-V/PI apoptosis assay by flow cytometry. The format is cell-based, human. The conditions noted are these: compound at its IC50 concentration, 24 h. The method, then: (§1) Cell cycle analysis and apoptosis investigation were carried out by flow cytometry.[39]^,[40] […] After treatment with the tested compound, for 24 h, cell pellets were collected and centrifuged (300 g, 5 min).
Flow cytometry method[39]^,[49] has been used to detect the corresponding red (PI) and green (FITC) fluorescence. It has been noted that there was an increment in the percentages of the late apoptosis produced by the evaluated compounds 4b and 4j from 0.13% (control DMSO/MCF-7 cells) to 13.81% and 22.03%, respectively. Also, the tested compounds produced early apoptotic effects of 6.15% and 3.27% compared to 0.58% of the untreated MCF-7 cell with necrosis percent of 4.37% and 9.22%, respectively, vs. 0.66% produced by the DMSO control (Figures 4 and 5).

The next experiment concerns PDGFR-α. Description: In vitro kinase inhibition assay, PDGFR-α. The conditions noted are these: for IC50: read-out: PDGFR-α IC50.
Experiment [3] relates to MCF-7 cells. Kind of experiment: Cell cycle analysis by flow cytometry. The format is cell-based, human. The following applies: for %G0–G1 / %G2/M / %Pre-G1 / %S: compound at its IC50 concentration, 24 h. The method, then: as §1
The induction of apoptosis is one of the most crucial tools that confirm the effectiveness of cancer therapy. Cell cycle checkpoints are G1 (restriction or start), S ([…]), and G2/M. One of the main functions of the anticancer therapeutics is stoppage of the cell division at these checkpoints.[51] […] The cells were stained with Annexin V/PI and examined using flow cytometry procedure.

Another experiment relates to normal WI38 cells. Description: MTT assay against normal WI38 cells (safety profile). The experiment is classed as cell-based, human. The conditions noted are these: for IC50: Homo sapiens, WI-38, MTT assay, normal WI38 cells derived from lung tissues, read-out: IC50 against the normal WI38 cells mean ± SD; for IC50 against WI38 cells, fold higher than IC50 of staurosporine: relative to staurosporine; for IC50 against WI38 cells, fold higher than IC50 against cancer (MCF-7) cells: WI38 vs MCF-7. An excerpt: One of the characteristics differentiating different anticancer agents from each other is the recurrence and severity of their side effects to the normal cells at their therapeutic doses. […].

For a further experiment, the target named is VEGFR-2 (Homo sapiens, UniProt P35968). Kind of experiment: In vitro kinase inhibition assay, VEGFR-2 (KDR Kinase Assay Kit).
Chain of VEGFR-2 (P35968 20-1356): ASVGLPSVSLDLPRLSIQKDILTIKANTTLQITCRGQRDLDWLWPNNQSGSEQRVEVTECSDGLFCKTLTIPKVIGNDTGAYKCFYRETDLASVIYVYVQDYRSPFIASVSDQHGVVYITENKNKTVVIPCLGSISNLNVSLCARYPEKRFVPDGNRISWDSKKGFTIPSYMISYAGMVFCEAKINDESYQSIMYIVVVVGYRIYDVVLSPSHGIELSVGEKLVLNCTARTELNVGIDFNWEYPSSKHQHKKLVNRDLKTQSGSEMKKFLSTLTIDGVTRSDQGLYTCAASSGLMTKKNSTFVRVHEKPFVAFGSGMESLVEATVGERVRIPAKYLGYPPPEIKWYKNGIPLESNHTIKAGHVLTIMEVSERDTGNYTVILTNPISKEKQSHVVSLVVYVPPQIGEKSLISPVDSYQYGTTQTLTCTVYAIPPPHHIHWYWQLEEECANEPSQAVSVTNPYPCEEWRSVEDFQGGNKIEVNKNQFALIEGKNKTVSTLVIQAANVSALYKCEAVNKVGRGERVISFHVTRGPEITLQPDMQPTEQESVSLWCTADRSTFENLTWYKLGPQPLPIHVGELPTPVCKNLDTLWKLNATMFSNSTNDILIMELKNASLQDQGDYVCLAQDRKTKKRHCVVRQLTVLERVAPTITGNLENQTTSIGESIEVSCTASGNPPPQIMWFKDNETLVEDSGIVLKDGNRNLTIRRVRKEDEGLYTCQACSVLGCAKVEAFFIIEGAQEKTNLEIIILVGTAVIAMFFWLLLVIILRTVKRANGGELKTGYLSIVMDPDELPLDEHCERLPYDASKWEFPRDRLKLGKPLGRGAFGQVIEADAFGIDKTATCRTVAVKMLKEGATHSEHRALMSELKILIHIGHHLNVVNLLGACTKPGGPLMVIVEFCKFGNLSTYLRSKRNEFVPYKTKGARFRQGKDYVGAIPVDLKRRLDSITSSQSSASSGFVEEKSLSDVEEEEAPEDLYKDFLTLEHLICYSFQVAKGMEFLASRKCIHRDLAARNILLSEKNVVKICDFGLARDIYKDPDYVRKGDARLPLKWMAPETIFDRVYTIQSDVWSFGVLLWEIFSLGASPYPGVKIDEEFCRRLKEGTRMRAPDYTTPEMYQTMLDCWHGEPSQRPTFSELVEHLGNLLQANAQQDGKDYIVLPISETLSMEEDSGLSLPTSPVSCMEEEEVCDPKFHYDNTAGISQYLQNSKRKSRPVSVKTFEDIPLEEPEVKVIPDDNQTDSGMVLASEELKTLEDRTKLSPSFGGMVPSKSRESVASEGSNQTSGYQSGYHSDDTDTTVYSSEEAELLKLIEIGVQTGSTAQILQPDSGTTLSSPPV
The target in the next experiment is EGFR (Homo sapiens, UniProt P00533). Description: In vitro kinase inhibition assay, EGFR (Abcam Human In cell ELISA Kit).
Chain of EGFR (P00533 25-1210): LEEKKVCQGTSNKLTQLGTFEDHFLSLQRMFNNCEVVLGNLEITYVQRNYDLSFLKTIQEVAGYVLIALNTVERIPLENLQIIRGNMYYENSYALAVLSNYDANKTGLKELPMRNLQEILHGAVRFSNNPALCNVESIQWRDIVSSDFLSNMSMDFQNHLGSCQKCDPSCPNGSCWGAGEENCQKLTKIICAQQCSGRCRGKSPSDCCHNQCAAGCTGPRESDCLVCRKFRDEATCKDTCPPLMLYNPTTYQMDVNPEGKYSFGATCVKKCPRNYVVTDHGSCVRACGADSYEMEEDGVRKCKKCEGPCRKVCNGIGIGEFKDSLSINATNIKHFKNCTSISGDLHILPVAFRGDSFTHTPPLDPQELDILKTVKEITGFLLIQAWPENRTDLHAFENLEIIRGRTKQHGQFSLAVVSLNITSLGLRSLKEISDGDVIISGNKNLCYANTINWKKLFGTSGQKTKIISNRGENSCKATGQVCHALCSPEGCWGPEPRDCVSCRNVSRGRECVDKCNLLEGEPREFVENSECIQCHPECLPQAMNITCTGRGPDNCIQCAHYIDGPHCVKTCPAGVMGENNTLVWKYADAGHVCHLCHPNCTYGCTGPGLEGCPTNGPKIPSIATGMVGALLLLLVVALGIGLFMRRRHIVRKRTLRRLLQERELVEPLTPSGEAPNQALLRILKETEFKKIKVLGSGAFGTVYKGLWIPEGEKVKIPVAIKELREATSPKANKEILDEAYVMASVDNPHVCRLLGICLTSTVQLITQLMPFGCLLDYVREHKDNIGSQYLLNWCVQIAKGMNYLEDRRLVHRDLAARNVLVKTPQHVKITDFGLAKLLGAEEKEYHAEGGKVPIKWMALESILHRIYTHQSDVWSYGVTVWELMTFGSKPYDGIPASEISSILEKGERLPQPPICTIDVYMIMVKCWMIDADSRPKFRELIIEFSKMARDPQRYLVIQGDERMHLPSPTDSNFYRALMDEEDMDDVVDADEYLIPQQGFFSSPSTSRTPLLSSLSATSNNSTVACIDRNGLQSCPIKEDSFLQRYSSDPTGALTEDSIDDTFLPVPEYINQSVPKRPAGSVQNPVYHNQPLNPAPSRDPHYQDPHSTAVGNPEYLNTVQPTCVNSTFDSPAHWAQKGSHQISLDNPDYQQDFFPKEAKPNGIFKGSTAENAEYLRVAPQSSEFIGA

Chain of HER-2 (P04626 23-1255): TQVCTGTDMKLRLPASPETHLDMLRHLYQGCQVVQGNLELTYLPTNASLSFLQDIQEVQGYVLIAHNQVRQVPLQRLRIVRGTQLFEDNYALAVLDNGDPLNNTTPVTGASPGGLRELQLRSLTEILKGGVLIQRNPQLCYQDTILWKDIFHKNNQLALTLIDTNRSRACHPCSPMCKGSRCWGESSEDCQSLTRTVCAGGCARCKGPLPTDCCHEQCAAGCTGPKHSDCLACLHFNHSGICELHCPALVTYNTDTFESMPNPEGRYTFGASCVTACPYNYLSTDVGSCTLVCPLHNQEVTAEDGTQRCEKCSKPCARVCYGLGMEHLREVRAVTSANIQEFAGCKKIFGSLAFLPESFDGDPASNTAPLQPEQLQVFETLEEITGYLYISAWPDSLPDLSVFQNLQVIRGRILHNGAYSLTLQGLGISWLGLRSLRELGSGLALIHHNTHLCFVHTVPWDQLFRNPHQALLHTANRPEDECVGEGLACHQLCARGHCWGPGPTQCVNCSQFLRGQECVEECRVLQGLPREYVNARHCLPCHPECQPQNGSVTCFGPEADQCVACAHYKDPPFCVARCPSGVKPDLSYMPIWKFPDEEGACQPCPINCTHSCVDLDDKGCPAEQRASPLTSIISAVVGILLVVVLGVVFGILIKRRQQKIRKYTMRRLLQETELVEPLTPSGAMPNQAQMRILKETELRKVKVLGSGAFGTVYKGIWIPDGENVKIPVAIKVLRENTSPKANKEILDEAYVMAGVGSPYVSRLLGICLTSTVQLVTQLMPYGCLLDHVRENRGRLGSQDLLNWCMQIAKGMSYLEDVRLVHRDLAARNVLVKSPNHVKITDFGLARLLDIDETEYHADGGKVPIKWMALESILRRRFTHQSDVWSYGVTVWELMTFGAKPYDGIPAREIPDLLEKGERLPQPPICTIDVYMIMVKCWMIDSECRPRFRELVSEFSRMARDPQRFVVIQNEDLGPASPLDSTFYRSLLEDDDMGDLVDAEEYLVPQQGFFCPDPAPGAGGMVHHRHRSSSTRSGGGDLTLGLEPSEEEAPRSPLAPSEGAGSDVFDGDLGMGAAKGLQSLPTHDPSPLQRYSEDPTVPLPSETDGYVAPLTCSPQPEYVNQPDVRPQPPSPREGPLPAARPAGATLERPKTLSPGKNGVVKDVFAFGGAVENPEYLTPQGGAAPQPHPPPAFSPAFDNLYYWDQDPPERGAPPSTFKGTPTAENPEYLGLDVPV
Text for HER-2: (§2) The procedure of the used kits was done according to the manufacturer, s instructions.
(§3) Which are: EGFR, human epidermal growth factor receptor (HER2), PDGFR-α, and VEGFR-2.
Text for PDGFR-α: as §2, §3
Text for VEGFR-2: as §2, §3

As for `Cc1ccc(S(=O)(=O)c2ccc(C3C(C(=O)c4ccccc4)=C(N)NC4=C3C(=O)CC(C)(C)C4)cc2)cc1` (stereo not drawn) [Compound 4j, 2-Amino-3-benzoyl-7,7-dimethyl-4–(4-tosylphenyl)-4,6,7,8-tetrahydroquinolin-5(1H)-one], in experiment [1], the IC50 amounted to 3 ± 5 nM. On HER-2, the “HER-2 inhibition, folds more potent than Sorafenib” value was “about 1.6 fold” and the IC50 turned out to be 0.17 ± 0.02 nM. In the experiment on MCF-7 cells [2], the early apoptotic effect is reported as 3.27%, the late apoptosis percentage amounted to 22.03% and the necrosis percent was determined as 9.22%. For the same molecule, in the experiment with PDGFR-α, the “PDGFR-α inhibition, fold more than sorafenib” value was 1.9 fold and the IC50 was 0.07 ± 0.01 nM. Moreover, in the experiment with MCF-7 cells [3], the “cell cycle effect in MCF-7 cells” value is on record as “cell cycle disruption at G2/M phase; also recorded: cell cycle arrest at G2/M phase”, the “%G0–G1” value amounted to 36.99%, the “%G2/M” value is recorded as 31.17% and the “%Pre-G1” value is given as 34.52%. The “%S” value with MCF-7 cells [3] came to 31.84%. Besides, in the experiment on normal WI38 cells, the IC50 worked out at 48 ± 8 nM and the “IC50 against WI38 cells, fold higher than IC50 of staurosporine” value is on record as “about 3 fold”. On VEGFR-2, the IC50 was found to be 0.3 ± 0.06 nM and the “VEGFR-2 inhibitory effect, fold less than Sorafenib” value is around 1.8 fold. The molecule further returned an IC50 against EGFR of 0.07 ± 0.02 nM.

In the case of `Cc1ccc(C(=O)C2=C(N)NC3=C(C(=O)CC(C)(C)C3)C2c2ccc(S(=O)(=O)c3ccccc3)cc2)cc1` (stereo not drawn) [Compound 4e, 2-Amino-7,7-dimethyl-3–(4-methylbenzoyl)-4–(4-(phenylsulfonyl)phenyl)-4,6,7,8-tetrahydroquinolin-5(1H)-one], in experiment [1], the IC50 is 4 ± 2 nM. In addition, in the experiment on normal WI38 cells, the IC50 was 14.9 ± 3 nM; the “IC50 against WI38 cells, fold higher than IC50 of staurosporine” value is “approximately equal”; the “IC50 against WI38 cells, fold higher than IC50 against cancer (MCF-7) cells” value worked out at 4 fold.

Turning to `CCOC(=O)C1=C(N)NC2=C(C(=O)CC(C)(C)C2)C1c1ccc(S(=O)(=O)c2ccccc2)cc1` (stereo not drawn) [Compound 4c, Ethyl 2-amino-7,7-dimethyl-5-oxo-4–(4-(phenylsulfonyl)phenyl)-1,4,5,6,7,8-hexahydroquinoline-3-carboxylate], the half-inhibitory concentration (IC50) in experiment [1] worked out at 15 ± 2 nM.

`CCOC(=O)C1=C(C(F)(F)F)NC2=C(C(=O)CC(C)(C)C2)C1c1ccc(S(=O)(=O)c2ccccc2)cc1` (stereo not drawn) [Compound 4b, Ethyl 7,7-dimethyl-5-oxo-4–(4-(phenylsulfonyl)phenyl)-2-(trifluoromethyl)-1,4,5,6,7,8-hexahydroquinoline-3-carboxylate]: the concentration for half-maximal inhibition (IC50) in experiment [1] was 2 ± 1 nM. Also, the “fold more potent than staurosporine against MCF-7” value in experiment [1] (ratio of IC50 values, MCF-7) was “about 2.5 fold”. Further, at HER-2, half-maximal inhibition (IC50) required 0.3 ± 0.05 nM. For the same molecule, in the experiment with MCF-7 cells [2], the early apoptotic effect was determined as 6.15%, the late apoptosis percentage is 13.81% and the necrosis percent is 4.37%. Moreover, the IC50 at PDGFR-α was determined as 0.21 ± 0.04 nM. Also, in the experiment with MCF-7 cells [3], the “%G0–G1” value worked out at 45.26%, the “%G2/M” value came out at 18.03%, the “%Pre-G1” value came out at 24.33% and the “%S” value is given as 36.71%. Further, in the experiment with normal WI38 cells, the IC50 is 45 ± 13 nM; the “IC50 against WI38 cells, fold higher than IC50 of staurosporine” value was “about 3 fold”; the “IC50 against WI38 cells, fold higher than IC50 against cancer (MCF-7) cells” value is 24 fold. Moreover, at VEGFR-2, half-maximal inhibition (IC50) was put at 1.05 ± 0.02 nM and the “VEGFR-2 inhibitory effect, fold less than Sorafenib” value is “about 6.2 fold”. Moreover, the IC50 against EGFR was found to be 0.11 ± 0.03 nM.

`CC1(C)CC(=O)C2=C(C1)NC(N)=C(C(=O)c1ccccc1)C2c1ccc(S(=O)(=O)c2ccccc2)cc1` (stereo not drawn) [Compound 4d, 2-Amino-3-benzoyl-7,7-dimethyl-4–(4-(phenylsulfonyl)phenyl)-4,6,7,8-tetrahydroquinolin-5(1H)-one]: the IC50 in experiment [1] turned out to be 7 ± 1 nM. Besides, the “fold less potent than staurosporine against MCF-7” value in experiment [1] (ratio of IC50 values, MCF-7) was determined as 1.4 fold.

As for `COC(=O)C1=C(C)NC2=C(C(=O)CC(C)(C)C2)C1c1ccc(S(=O)(=O)c2ccc(C)cc2)cc1` (stereo not drawn) [Compound 4g, Methyl 2,7,7-trimethyl-5-oxo-4–(4-tosylphenyl)-1,4,5,6,7,8-hexahydroquinoline-3-carboxylate], in experiment [1], the IC50 amounted to 27 ± 3 nM.

Turning to `CCOC(=O)C1=C(C(F)(F)F)NC2=C(C(=O)CC(C)(C)C2)C1c1ccc(S(=O)(=O)c2ccc(C)cc2)cc1` (stereo not drawn) [Compound 4h, Ethyl 7,7-dimethyl-5-oxo-4–(4-tosylphenyl)-2-(trifluoromethyl)-1,4,5,6,7,8-hexahydroquinoline-3-carboxylate], the IC50 in experiment [1] worked out at 41 ± 6 nM.

With `CC1(C)CC(=O)C2=C(C1)NC(N)=C(C(=O)c1ccc(Br)cc1)C2c1ccc(S(=O)(=O)c2ccccc2)cc1` (stereo not drawn) [Compound 4f, 2-Amino-3–(4-bromobenzoyl)-7,7-dimethyl-4–(4-(phenylsulfonyl)phenyl)-4,6,7,8-tetrahydroquinolin-5(1H)-one], in experiment [1], the IC50 worked out at 27 ± 14 nM.

Turning to `CCOC(=O)C1=C(N)NC2=C(C(=O)CC(C)(C)C2)C1c1ccc(S(=O)(=O)c2ccc(C)cc2)cc1` (stereo not drawn) [Compound 4i, Ethyl 2-amino-7,7-dimethyl-5-oxo-4–(4-tosylphenyl)-1,4,5,6,7,8-hexahydroquinoline-3-carboxylate], the IC50 in experiment [1] was 23 ± 3 nM.

For the molecule `Cc1ccc(C(=O)C2=C(N)NC3=C(C(=O)CC(C)(C)C3)C2c2ccc(S(=O)(=O)c3ccc(C)cc3)cc2)cc1` (stereo not drawn) [Compound 4k, 2-Amino-7,7-dimethyl-3–(4-methylbenzoyl)-4–(4-tosylphenyl)-4,6,7,8-tetrahydroquinolin-5(1H)-one], in experiment [1], the IC50 was 4 ± 1 nM. Moreover, in the experiment with normal WI38 cells, the IC50 amounted to 17.6 ± 9 nM; the “IC50 against WI38 cells, fold higher than IC50 of staurosporine” value is on record as “approximately equal”; the “IC50 against WI38 cells, fold higher than IC50 against cancer (MCF-7) cells” value was found to be 4 fold.

For `COC(=O)C1=C(C)NC2=C(C(=O)CC(C)(C)C2)C1c1ccc(S(=O)(=O)c2ccccc2)cc1` (stereo not drawn) [Compound 4a, Methyl 2,7,7-trimethyl-5-oxo-4–(4-(phenylsulfonyl)phenyl)-1,4,5,6,7,8-hexahydroquinoline-3-carboxylate], the IC50 in experiment [1] came to 103 ± 13 nM.

As for `Cc1ccc(S(=O)(=O)c2ccc(C3C(C(=O)c4ccc(Br)cc4)=C(N)NC4=C3C(=O)CC(C)(C)C4)cc2)cc1` (stereo not drawn) [Compound 4l, 2-Amino-3–(4-bromobenzoyl)-7,7-dimethyl-4–(4-tosylphenyl)-4,6,7,8-tetrahydroquinolin-5(1H)-one], the IC50 in experiment [1] turned out to be 7 ± 1 nM. For the same molecule, in experiment [1] (ratio of IC50 values, MCF-7), the “fold less potent than staurosporine against MCF-7” value is 1.4 fold.

Turning to `CN[C@@H]1C[C@H]2O[C@@](C)([C@@H]1OC)n1c3ccccc3c3c4c(c5c6ccccc6n2c5c31)C(=O)NC4` [Staurosporine, reference compound], the IC50 in the experiment with normal WI38 cells was found to be 13 ± 2 nM.
